Source: paper PMC11931565, “Exploring medium and long arm extensions of 1,2,4-triazole derivatives as Candida albicans 14α-demethylase (CYP51) inhibitors” (RSC Medicinal Chemistry, 2025)
In brackets after ≈: the same amount, converted by molar mass. Read-outs that look alike come from different tables or passages of the source.

Legend:
native CaCYP51 = molecular target: T1, native CaCYP51 (Candida albicans, UniProt P10613); assay: CaCYP51 type II ligand binding affinity (Kd) from difference spectra saturation curves
T1 construct: made in house; host or cells: E. coli
Description: Azole titration was performed in triplicate.
The ligand–CaCYP51 complex was determined by non-linear regression (Levenberg–Marquardt algorithm) using a rearrangement of the Morrison equation for tight ligand binding,[38] while weak ligand binding was calculated by the Michaelis–Menten equation. Curve fitting for novel azole saturation curves was performed using the computer program ProFit 6.1.12 (QuantumSoft, Zurich, Switzerland) for Mac OSX. Kd values were determined for each of the three replicate titrations per azole compound and then mean Kd values and standard deviations calculated.

[1] = tested on: S. cerevisiae Y2760 overexpressed H. sapiens wild-type CYP51 (HsCYP51); assay: MIC, recombinant S. cerevisiae strain Y2760 HsCYP51; assay type: cell-based; details: Saccharomyces cerevisiae; SD medium pH 6.8, 30 °C; 80% inhibition of growth; read-out: MIC Y2760 HsCYP51
Description: (§1) The most promising thiazole derivative 7b, and the extended amide derivatives 13a and 13b were evaluated against a panel of recombinant S. cerevisiae strains[24,31,32] expressing control levels of wild-type CYP51 (ScCYP51), overexpressed wild-type ScCYP51, overexpressed azole-resistant ScCYP51 Y140F/H mutations (S. cerevisiae Y140 equivalent to C. albicans Y132), overexpressed C. albicans efflux pumps MDR1a or CDR1B and overexpressed H. sapiens wild-type CYP51 (HsCYP51) (Table 3) at 24 and 48 h with each assay performed in triplicate.
The HsCYP51 ORF (NP_000777.1) was codon harmonized (ch) using DNA 2.0 for expression in S. cerevisiae and synthesized by ATUM (Newark, Ca, USA). The 3′ end of the ORF was extended to encode EQKI of the ScErg11 C-terminus, followed by a GGR linker and a 6xHis tag. Strain Y2514 was prepared by transforming host strain Y1857 with a transformation cassette including the above construct together with the ScPGK transcription terminator and URA3 selection marker located downstream, bordered by upstream and downstream parts of ScPDR5 gene identical to sequences in ScErg11 over-expressing strain Y941. Strain Y2514 constitutively overexpressed HsCYP51ch-6xHis and URA3 from the ScPDR5 locus.
Strain Y2757 (Y2514, PDR15::HsCPRch-6xHis-LoxP-HIS1-LoxP) was prepared by co-expressing the cognate reductase HsCRP in strain Y2514. Codon harmonisation and synthesis of human NADPH-cytochrome P450 reductase isoform 2 (HsCPRch, NP_001369584.1) ORF was performed by ATUM. The gene was 3′ extended with a sequence encoding GGR-6xHIS. A transformation cassette was prepared by recombinant PCR to include the HsCPRch ORF with 657 nucleotides the ScPDR5 promoter upstream, and the ScPGK terminator followed by the LoxP flanked ScHIS1 selection marker downstream. ScPDR15 specific arms bordering the construct enabled the cassette to be integrated between the nucleotide 441 of the 5′ UTR and nucleotide 1 of the 3′ UTR in PDR15.
Strain Y2758 (Y2757 ΔHIS1) was made using the following steps. Strain Y2757 was transformed with the pSH69 pGAL1-cre plasmid (Euroscarf, Germany) via selection on hygromycin (75 μg mL^−1) containing YPD plates. A single hygromycin positive colony was inoculated in 1% yeast extract, 2% peptone and 2% of galactose broth and incubated for 16 hours at 30 °C with shaking. The diluted culture was then plated on YPD agar and replica-plated on YPD + hygromycin and SD-HIS dropout agar plates. Deletion of the HIS selection marker downstream of HsCPRch-6xHis in the PDR15 locus was confirmed in double His and hygromycin negative isolates by PCR and DNA sequence analysis.
The endogenous ScERG11 ORF in strain Y2758 was removed by transforming with a LoxP- ScHIS1 containing cassette with arms complementing from +387 nucleotides in the 5′UTR and −60 nucleotides in the 3′UTR of the ScERG11 locus, resulting in strain Y2760 (ADΔΔ PDR5::HsCYP51ch-6×HIS-URA3; PDR15::HsCPRch6×HIS-LoxP, ΔERG11-LoxP-HIS1-LoxP).
(§2) Minimum inhibitory concentration (MIC) were determined according to recommendations outlined in the Clinical and Laboratory Standards Institute (CLSI) document M27-Ed4E[39] with modifications. Sabouraud dextrose (SD) medium (pH 6.8) was used instead of RPMI-1640 for inoculum and growth of the S. cerevisiae strains and cultures were incubated at 30 °C. […] Stock solutions of each agent were prepared in DMSO and the final concentration of DMSO was 1% (v/v) in SD. […] The final concentration of all other compounds ranged from 0.03–16 μg mL^−1. Three biological repeats were performed.

[2] = molecular target: T2, C. albicans CYP51 (CaCYP51) (Candida albicans, UniProt P10613); assay: CaCYP51 reconstitution assay (IC50); assay type: biochemical; details: 1 μM CaCYP51, 60 μM lanosterol, 15 min at 37 °C
T2 construct: made in house; host or cells: E. coli
Description: Derivatives with a MIC <1 μg mL^−1 were chosen for IC50 testing.
C. albicans CYP51 was overexpressed in E. coli and purified and CaCYP51 reconstitutions assays performed.[10,37] The final reaction volume of 500 μL, contained; 1 μM C. albicans CYP51, 2 μM Homo sapiens cytochrome P450 reductase (CPR) (UniProtKB accession number P16435), 60 μM lanosterol, 50 μM dilaurylphosphatidylcholine, 4% w/v 2-hydroypropyl-cyclodextrin, 0.4 mg mL^−1 isocitrate dehydrogenase, 25 mM trisodium isocitrate, 50 mM NaCl, 5 mM MgCl2, and 40 mM MOPS (morpholinepropanesulfonic acid, pH 7.2). Antifungal compounds were added in 2.5 μL DMSO. The reaction was started by the addition of 4 mM NADPH-tetrasodium salt. Samples were shaken for 15 min at 37 °C and sterol metabolites extracted with ethyl acetate and derivatised with BSTFA.

[3] = tested on: S. cerevisiae Y525 overexpressing C. albicans MFS transporter MDR1a; assay: MIC, recombinant S. cerevisiae strain Y525 CaMDR1a; assay type: cell-based; details: SD medium pH 6.8, 30 °C; 80% inhibition of growth
Description: as §2

[4] = tested on: S. cerevisiae Y2300 overexpressed wild-type ScCYP51; assay: MIC, recombinant S. cerevisiae strain Y2300 ScCYP51; assay type: cell-based; details: Saccharomyces cerevisiae; SD medium pH 6.8, 30 °C; 80% inhibition of growth; read-out: MIC Y2300 ScCYP51
Description: as §1, §2

[5] = tested on: S. cerevisiae Y570 overexpressing C. albicans ABC transporter CDR1B; assay: MIC, recombinant S. cerevisiae strain Y570 CaCDR1B; assay type: cell-based; details: SD medium pH 6.8, 30 °C; 80% inhibition of growth
Description: as §1, §2

[6] = tested on: S. cerevisiae Y2411 parent (control levels of wild-type ScCYP51); assay: MIC, recombinant S. cerevisiae strain Y2411 parent; assay type: cell-based; details: Saccharomyces cerevisiae; SD medium pH 6.8, 30 °C; 80% inhibition of growth; read-out: MIC Y2411 parent
Description: as §1, §2

[7] = tested on: S. cerevisiae Y2513 overexpressed ScCYP51 Y140H; assay: MIC, recombinant S. cerevisiae strain Y2513 Y140H; assay type: cell-based; details: Saccharomyces cerevisiae, pH 6.8, read-out: MIC Y2513 Y140H
Description: as §1, §2

[8] = tested on: S. cerevisiae Y2301 overexpressed ScCYP51 Y140F; assay: MIC, recombinant S. cerevisiae strain Y2301 Y140F; assay type: cell-based; details: Saccharomyces cerevisiae, pH 6.8, read-out: MIC Y2301 Y140F
Description: as §1, §2

[9] = tested on: C. albicans laboratory strain SC5314; assay: C. albicans susceptibility testing (CLSI broth microdilution MIC), strain SC5314; assay type: cell-based, Candida albicans; details: RPMI 1640, 37 °C, read at 48 h; for MIC: Candida albicans, SC5314, 48 h
From the text: (§3) Each novel compound was screened against C. albicans wild-type clinical isolate CA14 and C. albicans laboratory strain SC5314 using the standardised CLSI M27-S4 broth dilution method.[28] […] This might be explained by the clog P data as the more lipophilic compounds should more readily penetrate the fungal membrane resulting in improved uptake or may relate to optimal fill of the small hydrophobic pocket leading to improved binding.
(§4) Antifungal MIC values were obtained according to the CLSI microdilution method for yeasts.[28]C. albicans strains CA14 and SC5314 were tested in triplicate. Cultures were diluted to 2.5 × 10^3 cells per mL in RPMI 1640 (Sigma), buffered with 0.165 M MOPS, pH 7.0. Antifungal compounds were dissolved in DMSO and added at a final concentration of 1% v/v DMSO. Plates were incubated at 37 °C and read at 48 h.

[10] = tested on: C. albicans wild-type clinical isolate CA14; assay: C. albicans susceptibility testing (CLSI broth microdilution MIC), strain CA14; assay type: cell-based, Candida albicans; details: RPMI 1640, 37 °C, read at 48 h; for MIC: Candida albicans
From the text: as §3, §4

[11] = 2.5 μM native CaCYP51, mean ± SD of three titrations, read-out: K d

T1 sequence (P10613 whole entry): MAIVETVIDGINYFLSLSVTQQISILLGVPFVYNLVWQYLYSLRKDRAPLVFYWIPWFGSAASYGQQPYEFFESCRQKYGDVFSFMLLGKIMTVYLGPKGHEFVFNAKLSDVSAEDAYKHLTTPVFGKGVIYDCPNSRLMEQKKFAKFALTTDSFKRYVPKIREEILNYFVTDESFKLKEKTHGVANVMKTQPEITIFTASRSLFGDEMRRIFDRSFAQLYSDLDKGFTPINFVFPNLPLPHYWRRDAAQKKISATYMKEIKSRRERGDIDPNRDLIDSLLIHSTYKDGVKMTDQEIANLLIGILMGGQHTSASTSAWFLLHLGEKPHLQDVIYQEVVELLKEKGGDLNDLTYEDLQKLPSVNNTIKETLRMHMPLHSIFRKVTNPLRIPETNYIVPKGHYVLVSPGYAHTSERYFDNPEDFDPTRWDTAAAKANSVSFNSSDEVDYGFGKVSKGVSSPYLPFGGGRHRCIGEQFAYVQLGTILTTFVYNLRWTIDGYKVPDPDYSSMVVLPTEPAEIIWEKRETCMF
T2 sequence (P10613 whole entry): as above

Structure (SMILES) | Kd (native CaCYP51; [11]) | MIC [1] | IC50 [2] | MIC [3] | MIC [4] | MIC [5] | MIC [6] | MIC [7] | MIC [8] | MIC [9] | MIC SC5314 [9] | MIC [10] | MIC CA14 [10] | Kd (native CaCYP51)
O=C(NCC(O)(Cn1cncn1)c1ccc(Cl)cc1Cl)c1csc(Cl)n1 (stereo not shown) [7b, 2-Chloro-N-(2-(2,4-dichlorophenyl)-2-hydroxy-3-(1H-1,2,4-triazol-1-yl)propyl)thiazole-4-carboxamide] | 106 ± 15 nM | > 16 µg/mL | 410 nM | 2 µg/mL | 0.5 to 1 µg/mL | > 16 µg/mL | 0.125 µg/mL | 2 to 4 µg/mL | 4 µg/mL | < 0.03 µg/mL | <0.03 µg/mL | < 0.03 µg/mL | <0.03 µg/mL | 
O=C(NCC(O)(Cn1cncn1)c1ccc(Cl)cc1)c1ccc(NC(=O)c2ccc(Cl)cc2)cc1 (stereo not shown) [13a, 4-Chloro-N-(4-((2-(4-chlorophenyl)-2-hydroxy-3-(1H-1,2,4-triazol-1-yl)propyl)carbamoyl)phenyl)benzamide] | 46 ± 8 nM | > 16 µg/mL | 560 nM | 0.125 µg/mL | 1 to 2 µg/mL | > 16 µg/mL | 0.25 µg/mL | 1 µg/mL | 1 to 2 µg/mL | < 0.03 µg/mL | <0.03 µg/mL | < 0.03 µg/mL | <0.03 µg/mL | 
O=C(NCC(O)(Cn1cncn1)c1ccc(Cl)cc1Cl)c1ccc(NC(=O)c2ccc(Cl)cc2)cc1 (stereo not shown) [13b, 4-Chloro-N-(4-((2-(2,4-dichlorophenyl)-2-hydroxy-3-(1H-1,2,4-triazol-1-yl)propyl)carbamoyl)phenyl)benzamide] | 166 ± 39 nM | 4 to 8 µg/mL | 480 nM | 0.03 to 0.06 µg/mL | 0.25 µg/mL | > 16 µg/mL | 0.03 to 0.06 µg/mL | 0.125 µg/mL | 0.25 µg/mL | < 0.03 µg/mL | <0.03 µg/mL | < 0.03 µg/mL | <0.03 µg/mL | 
OC(Cn1cncn1)(Cn1cncn1)c1ccc(F)cc1F [FLZ, Fluconazole, reference compound] |  | > 128 µg/mL |  | 32 µg/mL | 16 µg/mL | > 128 µg/mL | 4 µg/mL | 32 µg/mL | 32 µg/mL | 0.125 µg/mL (≈ 0.408 µM) |  | 0.125 µg/mL (≈ 0.408 µM) |  | 31 ± 8 nM
